Measurements as given in patent US12152255B2, “ω-Transaminase mutant obtained by DNA synthetic shuffling combined mutation and use” (priority 2020, dated 2024).
Read-outs that look alike come from different tables or passages of the source.

What was measured:
[1] = target: Aspergillus terreus ω-transaminase mutant I77L-F115L-E133A-H210N-N245D (parent SEQ ID NO: 1; gene SEQ ID NO: 6) (Aspergillus terreus, UniProt Q0C8G1, D224K/E133A/F115L/H210N/I77L/N245D); assay: Kinetic parameters, transamination (acetophenone formation at 245 nm), I77L-F115L-E133A-H210N-N245D; type: biochemical; conditions: phosphate buffer pH 8.0, 0.1 mM PLP
[2] = target: Aspergillus terreus ω-transaminase mutant I77L-Q97E-F115L-L118T-E253A-G292D (parent SEQ ID NO: 1; gene SEQ ID NO: 7) (Aspergillus terreus, UniProt Q0C8G1, D224A/E253A/F115L/G292D/I77L/L118T/Q97E); assay: Kinetic parameters, transamination (acetophenone formation at 245 nm), I77L-Q97E-F115L-L118T-E253A-G292D; type: biochemical; conditions: phosphate buffer pH 8.0, 0.1 mM PLP
[3] = target: Aspergillus terreus ω-transaminase mutant I77L-E133A-N245D-G292D (parent SEQ ID NO: 1; gene SEQ ID NO: 8) (Aspergillus terreus, UniProt Q0C8G1, E133A/G292D/I77L/N245D); assay: Kinetic parameters, transamination (acetophenone formation at 245 nm), I77L-E133A-N245D-G292D; type: biochemical; conditions: phosphate buffer pH 8.0, 0.1 mM PLP
[4] = tested on: Aspergillus terreus ω-transaminase mutant H210N-N245D-E253A-G292D (parent SEQ ID NO: 1; gene SEQ ID NO: 9); assay: Kinetic parameters, transamination (acetophenone formation at 245 nm), H210N-N245D-E253A-G292D; type: biochemical; conditions: phosphate buffer pH 8.0, 0.1 mM PLP
[5] = target: Aspergillus terreus ω-transaminase mutant F115L-H210N-E253A-I295V (parent SEQ ID NO: 1; gene SEQ ID NO: 5) (Aspergillus terreus, UniProt Q0C8G1); assay: Kinetic parameters, transamination (acetophenone formation at 245 nm), F115L-H210N-E253A-I295V; type: biochemical
[6] = target: T1, Aspergillus terreus ω-transaminase, wild type (WT-ATA), SEQ ID NO: 1 (Aspergillus terreus, UniProt Q0C8G1); assay: Kinetic parameters, transamination (acetophenone formation at 245 nm), WT-ATA; conditions: phosphate buffer pH 8.0, 0.1 mM PLP
T1 sequence (Q0C8G1 1-325): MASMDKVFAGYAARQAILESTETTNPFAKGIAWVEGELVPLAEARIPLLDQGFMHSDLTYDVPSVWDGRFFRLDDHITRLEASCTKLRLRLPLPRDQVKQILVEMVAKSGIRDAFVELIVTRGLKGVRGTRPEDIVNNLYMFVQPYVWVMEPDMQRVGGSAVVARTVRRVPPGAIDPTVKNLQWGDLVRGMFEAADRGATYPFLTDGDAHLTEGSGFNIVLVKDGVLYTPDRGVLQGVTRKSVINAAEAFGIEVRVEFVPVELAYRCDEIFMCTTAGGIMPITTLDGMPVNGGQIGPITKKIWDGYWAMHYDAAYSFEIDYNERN

[7] = target: Aspergillus terreus ω-transaminase mutant F115L-H210N (parent SEQ ID NO: 1; gene SEQ ID NO: 4) (Aspergillus terreus, UniProt Q0C8G1, D231A/F115L/H210N); assay: Kinetic parameters, transamination (acetophenone formation at 245 nm), F115L-H210N; type: biochemical; conditions: phosphate buffer pH 8.0, 0.1 mM PLP
[8] = target: Aspergillus terreus ω-transaminase mutant F115L-H210N-M150C-M280C (parent SEQ ID NO: 1; gene SEQ ID NO: 3) (Aspergillus terreus, UniProt Q0C8G1, E253A/F115L/H210N/M150C/M280C); assay: Kinetic parameters, transamination (acetophenone formation at 245 nm), F115L-H210N-M150C-M280C; type: biochemical; conditions: phosphate buffer pH 8.0, 0.1 mM PLP
C[C@@H](N)c1ccccc1 = assay: Kinetic parameters, transamination (acetophenone formation at 245 nm), I77L-E133A-N245D-G292D; type: biochemical, Aspergillus terreus; conditions: other: I77L-E133A-N245D-G292D, phosphate buffer pH 8.0, 0.1 mM PLP
CC(=O)C(=O)O = assay: as above; type: biochemical, Aspergillus terreus; conditions: other: I77L-E133A-N245D-G292D, phosphate buffer pH 8.0, 0.1 mM PLP
[9] = substrate: CC(=O)C(=O)O; assay: purified protein, by the assay type; conditions: other: WT-ATA, phosphate buffer pH 8.0, 0.1 mM PLP
[10] = phosphate buffer pH 8.0, 0.1 mM PLP

Question: What does the source list for CC(=O)C(=O)O [pyruvate, pyruvic acid]?
Answer: Kcat^pyruvate [1]: 1.96 ± 0.03 s⁻¹; kcat/Km^pyruvate [1]: 990 M⁻¹ s⁻¹; Kcat^pyruvate [2]: 2.76 ± 0.01 s⁻¹; kcat/Km^pyruvate [2]: 1330 M⁻¹ s⁻¹; Kcat^pyruvate [3]: 3.05 ± 0.02 s⁻¹; kcat/Km^pyruvate [3]: 1180 M⁻¹ s⁻¹; Kcat^pyruvate [4]: 1.89 ± 0.03 s⁻¹; kcat/Km^pyruvate [4]: 3010 M⁻¹ s⁻¹; Kcat^pyruvate [5, 10]: 3.17 ± 0.01 s⁻¹; kcat/Km^pyruvate [5, 10]: 2030 M⁻¹ s⁻¹; Km ([5]; read-out: Km^pyruvate, phosphate buffer pH 8.0, 0.1 mM PLP): 1560 ± 70 µM; Kcat^pyruvate [6]: 0.50 ± 0.01 s⁻¹; kcat/Km^pyruvate [6]: 2220 M⁻¹ s⁻¹; Kcat^pyruvate [7]: 2.55 ± 0.01 s⁻¹; kcat/Km^pyruvate [7]: 1710 M⁻¹ s⁻¹; Kcat^pyruvate [8]: 3.87 ± 0.03 s⁻¹; kcat/Km^pyruvate [8]: 1450 M⁻¹ s⁻¹

Question: C[C@@H](N)c1ccccc1 [α-MBA, (R)-(+)-α-methylbenzylamine] was tested. Which Km ([5]; read-out: Km^α-MBA, phosphate buffer pH 8.0, 0.1 mM PLP) did it give?
Answer: 800 ± 30 µM

Question: With “Aspergillus terreus ω-transaminase mutant I77L-E133A-N245D-G292D (parent SEQ ID NO: 1; gene SEQ ID NO: 8) (Aspergillus terreus NIH2624; E133A/G292D/I77L/N245D)” as the molecule, how does the Km (C[C@@H](N)c1ccccc1) read?
Answer: 840 ± 50 µM

Question: And the Km (CC(=O)C(=O)O)?
Answer: 2590 ± 20 µM

B1: Aspergillus terreus ω-transaminase, wild type (WT-ATA), SEQ ID NO: 1 (Aspergillus terreus NIH2624) (protein)
chain: T1 sequence (Q0C8G1 1-325)
Question: How did the Km [9] turn out when B1 was run?
Answer: 230 ± 20 µM
